The numbers were not newly measured in patent US20130338098A1, “Topical Analgesic Compositions Containing Aliphatic Polyamines and Methods of Using Same” (Dermal Therapy (Barbados) Inc., priority 2000, published 2013), which cites them from elsewhere.

For the data set the following is noted: orally, intravenously, intraperitoneally, and intramuscularly.

As for `NCCCCN` [putrescine, 1,4-diaminobutane], the Toxicity entry is on record as “very low toxicity”.
